Laboratory results reported in PubChem BioAssay AID1963961 (Molecular Pharmacology Branch, DTP, NCI, 2024).
Where “and” joins values, the source holds several entries; their conditions need not be identical. Equal values may be shown once.

Test system: K98450-129-R-PDC multicell spheroids, viability
Test: Anticancer human tumor K98450-129-R-PDC patient-derived colon adenocarcinoma cell line growth inhibition [PI3K]
Conditions: for viability, T/C: stronger effect = lower value
Source text: Combinatorial screen of targeted agents with the PI3K inhibitors inavolisib, alpelisib, duvelisib, and copanlisib in multi-cell type tumor spheroids
A high-throughput screen of multi-cell type tumor spheroids was designed to identify active combinations of targeted small molecules and PI3K pathway inhibitors. Complex spheroids include a stromal component modeled by human endothelial cells (HUVEC) and fibroblasts modeled by human mesenchymal stem cells (MSCs). The concentration ranges selected for each drug and investigational agent were based upon clinically achievable concentrations if the clinical Cmax of the agent was known.
Compounds. The drugs and investigational agents: inavolisib (NSC800729), alpelisib (NSC765974), duvelisib (NSC772469), copanlisib (NSC816437), ipatasertib (NSC767898), afuresertib (NSC778305), talazoparib (NSC767125), sapanisertib (NSC764658), selumetinib (NSC741078), tovorafenib (DAY101, NSC766906), vemurafenib (NSC761431), ravoxertinib (NSC781343), sotorasib (NSC818433), MRTX1133 (NSC 836407), abemaciclib (NSC 768073), palbociclib (NSC758247), venetoclax (NSC 766270), SY5609 (NSC837396), enzalutamide (NSC755605), and darolutamide (NSC825331), were obtained from the National Cancer Institute (NCI) Developmental Therapeutics Program Chemical Repository. The FDA-approved anticancer drug set is available from the NCI Developmental Therapeutics Program. […] The stock solutions were prepared in dimethyl sulfoxide (DMSO, Sigma-Aldrich, St. Louis, MO, cat. D2650) at 800-fold the tested concentration and stored at -70 degrees C prior to their use. All drugs and investigational agents were tested over a range starting from a high concentration at or near the clinical Cmax and decreasing in half-log increments. If the clinical Cmax for an agent had not been determined, the highest concentration tested was 10 microM.
Cell Culture. All cells were maintained in an incubator at 37 degrees C and 5% CO2 with 95% humidity. The PDC lines were cultured according to standard operating procedures established by the NCI PDMR (https://pdmr.cancer.gov/sops/default.htm). All PDCs were thawed and cultured in Matrigel-coated flasks prepared with a working solution of 1X Ham's F-12 nutrient mix, without supplementation (Invitrogen, Waltham, MA, cat. 11765054), 100 U/mL penicillin-streptomycin (Invitrogen, cat. 15140122), and 2.5% Matrigel (Corning Inc., Corning, NY, cat. 354248) for the first three passages. The 354836-022-R-J1-PDC, 475296-252-R-J1-PDC, and 997726-040-R-J2-PDC lines were cultured in 6A media, which includes advanced DMEM/F-12 (Thermo Fisher Scientific, cat. 12634028), 10 mM HEPES (Thermo Fisher Scientific, cat. 15630080), 1X GlutaMAX supplement (Thermo Fisher Scientific, cat. 35050061), 0.1 mg/mL primocin (InvivoGen, San Diego, CA, cat. ant-pm-2), 10% defined fetal bovine serum, heat inactivated (HyClone Laboratories Inc., Logan, UT, cat. SH30070.03HI), 50% L-WRN conditioned media (ATCC, cat. CRL-3276), 1.25 mM N-Acetyl-L-cysteine (Sigma-Aldrich, cat. A9165), 10 mM nicotinamide (Sigma-Aldrich, cat. N0636), 1X B-27 supplement (Thermo Fisher Scientific, cat. 17504044), 1X N-2 supplement (Thermo Fisher Scientific, cat. 17502048), and 10 microM Y-27632 dihydrochloride (Tocris Bioscience, Bristol, United Kingdom, cat. 1254). The 624824-186-R-J2-PDC line was cultured in 6C/Colon 1B media, which includes all 6A media components plus 50 ng/mL human EGF recombinant protein (Thermo Fisher Scientific, cat. PHG0311). […]

[1] = curve of first compound, second compound 0.00316 µM
[2] = curve of first compound, second compound 0.01 µM
[3] = curve of first compound, second compound 0.0316 µM
[4] = curve of first compound, second compound 0.1 µM
[5] = curve of first compound, second compound 0.316 µM
[6] = curve of first compound, second compound 1 µM
[7] = second compound 0.00316 µM, first compound 0.0316 µM
[8] = second compound 0.00316 µM, first compound 0.1 µM
[9] = second compound 0.00316 µM, first compound 0.316 µM
[10] = second compound 0.00316 µM, first compound 1 µM
[11] = second compound 0.00316 µM, first compound 3.16 µM
[12] = second compound 0.00316 µM, first compound 10 µM
[13] = second compound 0.01 µM, first compound 0.0316 µM
[14] = second compound 0.01 µM, first compound 0.1 µM
[15] = second compound 0.01 µM, first compound 0.316 µM
[16] = second compound 0.01 µM, first compound 1 µM
[17] = second compound 0.01 µM, first compound 3.16 µM
[18] = second compound 0.01 µM, first compound 10 µM
[19] = second compound 0.0316 µM, first compound 0.0316 µM
[20] = second compound 0.0316 µM, first compound 0.1 µM
[21] = second compound 0.0316 µM, first compound 0.316 µM
[22] = second compound 0.0316 µM, first compound 1 µM
[23] = second compound 0.0316 µM, first compound 3.16 µM
[24] = second compound 0.0316 µM, first compound 10 µM
[25] = second compound 0.1 µM, first compound 0.0316 µM
[26] = second compound 0.1 µM, first compound 0.1 µM
[27] = second compound 0.1 µM, first compound 0.316 µM
[28] = second compound 0.1 µM, first compound 1 µM
[29] = second compound 0.1 µM, first compound 3.16 µM
[30] = second compound 0.1 µM, first compound 10 µM
[31] = second compound 0.316 µM, first compound 0.0316 µM
[32] = second compound 0.316 µM, first compound 0.1 µM
[33] = second compound 0.316 µM, first compound 0.316 µM
[34] = second compound 0.316 µM, first compound 1 µM
[35] = second compound 0.316 µM, first compound 3.16 µM
[36] = second compound 0.316 µM, first compound 10 µM
[37] = second compound 1 µM, first compound 0.0316 µM
[38] = second compound 1 µM, first compound 0.1 µM
[39] = second compound 1 µM, first compound 0.316 µM
[40] = second compound 1 µM, first compound 1 µM
[41] = second compound 1 µM, first compound 3.16 µM
[42] = second compound 1 µM, first compound 10 µM
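Further: spheroids exposed to agents for seven days before read-out.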

C=CC(=O)N1CCN(c2nc(=O)n(-c3c(C)ccnc3C(C)C)c3nc(-c4c(O)cccc4F)c(F)cc23)C(C)C1 (configuration not stated) + COc1c(OCCCN2CCOCC2)ccc2c3n(c(=NC(=O)c4cnc(N)nc4)nc12)CCN3
IC50 [1]: 2.76 µM | IC50 [2]: 5 µM | IC50 [3]: 2.95 µM | IC50 [4]: 0.692 µM | IC50 [5]: 0.554 µM | IC50 [6]: 0.166 µM | viability, T/C [7]: 98.1% | viability, T/C [8]: 95.5% | viability, T/C [9]: 97.4% | viability, T/C [10]: 82.1% | viability, T/C [11]: 45.7% | viability, T/C [12]: 44.7% | viability, T/C [13]: 103% | viability, T/C [14]: 82.8% | viability, T/C [15]: 89.3% | viability, T/C [16]: 63% | viability, T/C [17]: 57.1% | viability, T/C [18]: 41.4% | viability, T/C [19]: 116% | viability, T/C [20]: 99.6% | viability, T/C [21]: 73.8% | viability, T/C [22]: 76.2% | viability, T/C [23]: 48.6% | viability, T/C [24]: 29.4% | viability, T/C [25]: 71.9% | viability, T/C [26]: 91.2% | viability, T/C [27]: 61.1% | viability, T/C [28]: 44.9% | viability, T/C [29]: 41.9% | viability, T/C [30]: 28.3% | viability, T/C [31]: 67.7% | viability, T/C [32]: 59.5% | viability, T/C [33]: 66% | viability, T/C [34]: 34.8% | viability, T/C [35]: 19.5% | viability, T/C [36]: 16.3% | viability, T/C [37]: 50.8% | viability, T/C [38]: 61.1% | viability, T/C [39]: 42.2% | viability, T/C [40]: 22.6% | viability, T/C [41]: 15.1% | viability, T/C [42]: 14.2%

C#Cc1c(F)ccc2cc(O)cc(-c3ncc4c(N5CC6CCC(C5)N6)nc(OCC56CCCN5CC(F)C6)nc4c3F)c12 (configuration not stated) + CC(Nc1ncnc2nc[nH]c12)c1cc2cccc(Cl)c2c(=O)n1-c1ccccc1
IC50 [3]: > 10 µM | IC50 [4]: > 10 µM | IC50 [5]: > 10 µM | IC50 [6]: > 10 µM | IC50 (curve of first compound, second compound 3.16 µM): > 10 µM | IC50 (curve of first compound, second compound 10 µM): > 10 µM | viability, T/C [19]: 120% | viability, T/C [20]: 101% | viability, T/C [21]: 99.1% | viability, T/C [22]: 91.7% | viability, T/C [23]: 90.9% | viability, T/C [24]: 92.9% | viability, T/C [25]: 116% | viability, T/C [26]: 98.7% | viability, T/C [27]: 96.4% | viability, T/C [28]: 90.1% | viability, T/C [29]: 98.2% | viability, T/C [30]: 90.6% | viability, T/C [31]: 110% | viability, T/C [32]: 106% | viability, T/C [33]: 91.1% | viability, T/C [34]: 100% | viability, T/C [35]: 101% | viability, T/C [36]: 96.2% | viability, T/C [37]: 98.9% | viability, T/C [38]: 91.6% | viability, T/C [39]: 104% | viability, T/C [40]: 84.1% | viability, T/C [41]: 115% | viability, T/C [42]: 77.5% | viability, T/C (second compound 3.16 µM, first compound 0.0316 µM): 89.4% | viability, T/C (second compound 3.16 µM, first compound 0.1 µM): 89.9% | viability, T/C (second compound 3.16 µM, first compound 0.316 µM): 93.5% | viability, T/C (second compound 3.16 µM, first compound 1 µM): 85.1% | viability, T/C (second compound 3.16 µM, first compound 3.16 µM): 92% | viability, T/C (second compound 3.16 µM, first compound 10 µM): 87.4% | viability, T/C (second compound 10 µM, first compound 0.0316 µM): 87.5% | viability, T/C (second compound 10 µM, first compound 0.1 µM): 98.2% | viability, T/C (second compound 10 µM, first compound 0.316 µM): 88.2% | viability, T/C (second compound 10 µM, first compound 1 µM): 91.3% | viability, T/C (second compound 10 µM, first compound 3.16 µM): 99.9% | viability, T/C (second compound 10 µM, first compound 10 µM): 75.1%

C=CC(=O)N1CCN(c2nc(=O)n(-c3c(C)ccnc3C(C)C)c3nc(-c4c(O)cccc4F)c(F)cc23)C(C)C1 (configuration not stated)
viability, T/C (compound 0.0316 µM): 104% [middle of 4 runs] | viability, T/C (compound 0.1 µM): 98.4% [middle of 4 runs] | viability, T/C (compound 0.316 µM): 102% [middle of 4 runs] | viability, T/C (compound 3.16 µM): 56% [middle of 4 runs]

Cn1nccc1Nc1nccc(-c2ccn(C(CO)c3ccc(Cl)c(F)c3)c(=O)c2)n1 (configuration not stated) + CC(Nc1ccc2c(c1)OCCn1cc(N3C(=O)OCC3C(F)F)nc1-2)C(N)=O
IC50 [1]: > 10 µM | IC50 [2]: > 10 µM | IC50 [3]: > 10 µM | IC50 [4]: > 10 µM | IC50 [5]: > 10 µM | IC50 [6]: > 10 µM | viability, T/C [7]: 109% | viability, T/C [8]: 96.3% | viability, T/C [9]: 107% | viability, T/C [10]: 99.2% | viability, T/C [11]: 101% | viability, T/C [12]: 94.2% | viability, T/C [13]: 108% | viability, T/C [14]: 97.5% | viability, T/C [15]: 99.1% | viability, T/C [16]: 94.7% | viability, T/C [17]: 98.8% | viability, T/C [18]: 88.7% | viability, T/C [19]: 103% | viability, T/C [20]: 103% | viability, T/C [21]: 96.5% | viability, T/C [22]: 94.4% | viability, T/C [23]: 99.2% | viability, T/C [24]: 91% | viability, T/C [25]: 95.5% | viability, T/C [26]: 98.5% | viability, T/C [27]: 98.2% | viability, T/C [28]: 93.1% | viability, T/C [29]: 98.9% | viability, T/C [30]: 88.7% | viability, T/C [31]: 91.5% | viability, T/C [32]: 90.7% | viability, T/C [33]: 101% | viability, T/C [34]: 96.2% | viability, T/C [35]: 99.4% | viability, T/C [36]: 87.4% | viability, T/C [37]: 83.6% | viability, T/C [38]: 84.4% | viability, T/C [39]: 91% | viability, T/C [40]: 87.7% | viability, T/C [41]: 90.9% | viability, T/C [42]: 82.2%

C#Cc1c(F)ccc2cc(O)cc(-c3ncc4c(N5CC6CCC(C5)N6)nc(OCC56CCCN5CC(F)C6)nc4c3F)c12 (configuration not stated)
viability, T/C (compound 0.0316 µM): 109% [middle of 4 runs] | viability, T/C (compound 0.1 µM): 106% [middle of 4 runs] | viability, T/C (compound 0.316 µM): 104% (2×) and 101% and 102% | viability, T/C (compound 1 µM): 105% [middle of 4 runs] | viability, T/C (compound 3.16 µM): 99.8% and 91.5% (2×) and 108% | viability, T/C (compound 10 µM): 89.9% [middle of 4 runs] | IC50 (curve of compound): > 10 µM
